Source: US8114850B2, “Antiproliferative activity of G-rich oligonucleotides and method of using same to bind to nucleolin” (Advanced Cancer Therapeutics, LLC, priority 1999, dated 2012)

Tests used:
[1] = tested on: MDA-MB-231 breast cancer cells; assay: Chemotherapeutic agent and GRO combination, MTT assay; format: cell-based, human; details: cisplatin 0.5 µg/ml, GR029A 8 uM added after two hours, MTT after six days
Description: Cisplatin (in 1% DMSO solution to give a final concentration of […]) was added to the medium of MDA-MB-231 breast cancer cells growing in culture. After two hours, GR029A (in PBS solution to give a final concentration of 8 uM) was added to the medium. After six days, the relative number of viable cells was determined using the MTT assay. Cells treated with GR029A alone received an appropriate volume of 1% DMSO in place of cisplatin. Cells treated with cisplatin alone received an appropriate volume of PBS in place of GR029A.

[2] = target: T1, G-rich oligonucleotide binding protein / nucleolin (Homo sapiens, UniProt P19338); assay: Protein binding, summary statements (EMSA); details: characterization of the aptamer
T1 construct: endogenous in cells; MDA-MB-231)
From the text: By G-rich oligonucleotide (GRO) it is meant that the oligonucleotides consist of 4-100 nucleotides (preferably 10-30 nucleotides) with DNA, RNA, 2′-O-methyl, phosphorothioate or other chemically similar backbones. Their sequences contain one or more GGT motifs. The oligonucleotides have antiproliferative activity against cells and bind to GRO binding protein and/or nucleolin.
Additionally, the present invention provides a method for selecting oligonucleotides that bind to nucleolin. The method utilizes an electrophoretic mobility shift assay (EMSA), as described below, to screen for oligonucleotides that bind strongly to nucleolin and which, therefore, would be expected, according to the present invention, to have anti-proliferative activity. Oligonucleotides to be screened as potential antiproliferative agents are labeled and then incubated with nuclear extracts in the absence or presence of unlabeled competitor oligonucleotide and are allowed to react. The reaction mixtures are then electrophoresed and mobility shifts and/or bond intensity can be used to identify those oligonucleotides which have bound to the specific protein.
Alternatively, unlabeled compounds to be screened are incubated with nuclear extracts in the presence of labeled oligonucleotide (for example 5′-TTAGGGTTAGGGTTAGGG TTAGGG) (SEQ ID NO: 20) and binding is assessed by a decrease in the intensity of the shifted band, as in FIG. 6B.

[3] = tested on: non-small-cell lung cancer (NSCLC); assay: Phase 1 study, NSCLC patients; format: in vivo, human; details: RECIST
Description: (§1) A Phase 1, open label, non-randomized dose escalation study of SEQ ID NO:12 was conducted on 17 human individuals with various advanced malignancies. […] After these 17 individuals had received treatment, only individuals with RCC (renal-cell carcinoma) or non-small-cell lung cancer (NSCLC) were enrolled in the clinical trial to obtain data for more homogenous patient populations and thereby enhance the quality of the results.
Following these findings, the trial was extended to include additional individuals (“patients”) with RCC (renal-cell carcinoma) or non-small-cell lung cancer. All of said individuals had progressive, metastatic cancers upon entry to the study. […] All individuals enrolled in the study were evaluable for toxicity and response and had measurable disease, i.e. able to be measured accurately in one or more dimension(s). […]
(§2) Baseline evaluations included medical history, 12-lead electrocardiogram, safety assessments and tumor measurements within 1 week of the start of the study. Individuals were monitored in the hospital during infusion of the SEQ ID NO:12 aptamer (days 1-8) and then evaluated subsequently on days 15, 29 and 58.
Efficacy was assessed by tumor measurements and radiological evaluation at baseline ([…] to the start of the study), at day 29 and day 58. […]

[4] = Stability in serum; format: in vitro ADME
Description: The effects of four G-rich phosphodiester oligonucleotides (GROs) on the growth of tumor cells in culture were tested. These oligonucleotides consisted entirely of deoxyguanosine and thymidine and contained at least two contiguous guanosines. For increased stability to serum nucleases, oligonucleotides were modified at the 3′-terminus with a propylamino group. This modification protects the oligonucleotides from degradation in serum containing medium for at least twenty-four hours.

[5] = Phase 1 study, toxicity; format: in vivo, human; details: doses up to 40 mg/kg/day for up to 7 days, continuous i.v. infusion
Description: (§3) The SEQ ID NO:12 aptamer was administered to individuals as a continuous intravenous infusion. All individuals received one or two cycles of treatment. The dose escalation protocol provided a division of the subjects into cohorts of 3 in sequential order. If no individuals in a cohort experienced DLT within […] of treatment, the dosage was escalated to the next level. The dosage was increased up to 10 mg/kg/day for 7 days in the first 17 individuals and increased up to 40 mg/kg/day for 7 days in the RCC/NSCLC extension. The original starting dose was about 1 mg/kg/day for 4 days for both sets of individuals.
If no subject in the first cohort experienced DLT within 14 days of treatment, the dose for the next cohort was escalated to the next level. […] For this study, DLT was identified as grade 3-4 non-hematological toxicity, grade 4 hematological toxicity that persisted for 3 or more days, grade 4 febrile neutropenia, or grade 4 thrombocytopenia with bleeding. […]
as §2

[6] = tested on: advanced, metastatic RCC (renal-cell carcinoma); assay: Phase 1 study, RCC patients; format: in vivo, human
Description: as §1
Following these findings, the trial was extended to include additional individuals (“patients”) with RCC (renal-cell carcinoma) or non-small-cell lung cancer. All of said individuals had progressive, metastatic cancers upon entry to the study. It should be noted that none of the individuals had received chemotherapy, radiotherapy or any investigational agent for cancer within the 4 weeks prior to entry to the study or 6 weeks prior for nitrosourea or mitomycin C. All individuals enrolled in the study were evaluable for toxicity and response and had measurable disease, i.e. able to be measured accurately in one or more dimension(s). Participants of the study were recruited at one site: the University of Louisville, James Brown Cancer Center, in Louisville, Ky., USA. The study was conducted in accordance with Good Clinical Practices and the Declaration of Helsinki. Institutional Review Board approval and informed patient consent were obtained before the study began.
as §3
If no subject in the first cohort experienced DLT within 14 days of treatment, the dose for the next cohort was escalated to the next level. […] For this study, DLT was identified as grade 3-4 non-hematological toxicity, grade 4 hematological toxicity that persisted for 3 or more days, grade 4 febrile neutropenia, or grade 4 thrombocytopenia with bleeding. Toxicity was graded according to the National Cancer Institute Common Terminology for Adverse Events (“NCI-CTCAE”) version 3.0.
Dose escalation was accomplished by doubling until a biological effect was noted (i.e., by development of NCI-CTCAE grade 2 toxicity), at which point the dose was escalated using a modified Fibonacci design (dose increments to 1.6 times the pervious dose level). The maximum dose for the study was 40 mg/kg/day.
as §2
Efficacy was assessed by tumor measurements and radiological evaluation at baseline ([…] to the start of the study), at day 29 and day 58.
Tumor measurements were conducted using photographs (skin lesions), chest X-rays, CT scans, magnetic resonance imaging (MRI) and ultrasound. The assessments of tumor measurements were conducted using the Response Evaluation Criteria in Solid Tumors (RECIST) guidelines. See Arbuck et al., (2000) Journal Nat'l Cancer Inst., 92: 205-16. All tumor measurements were taken in metric notation using a ruler or caliper.
As a preliminary note, tumor response was evaluated using RECIST guidelines and categorized as complete response (CR), partial response (PR), stable disease (SD) or progressive disease (PD). […]

[7] = tested on: tumor cells; assay: In-vitro experiments with SEQ ID NO:12 in tumor cells; format: cell-based
From the text: SEQ ID NO: 12, a G-rich oligonucleotide (GRO) aptamer comprising a single-strand oligonucleotide of 26 bases, was selected for the study. […] Preclinical data indicates potential of SEQ ID NO: 12 against a wide variety of solid and hematologic malignancies.

T1 sequence (P19338 whole entry): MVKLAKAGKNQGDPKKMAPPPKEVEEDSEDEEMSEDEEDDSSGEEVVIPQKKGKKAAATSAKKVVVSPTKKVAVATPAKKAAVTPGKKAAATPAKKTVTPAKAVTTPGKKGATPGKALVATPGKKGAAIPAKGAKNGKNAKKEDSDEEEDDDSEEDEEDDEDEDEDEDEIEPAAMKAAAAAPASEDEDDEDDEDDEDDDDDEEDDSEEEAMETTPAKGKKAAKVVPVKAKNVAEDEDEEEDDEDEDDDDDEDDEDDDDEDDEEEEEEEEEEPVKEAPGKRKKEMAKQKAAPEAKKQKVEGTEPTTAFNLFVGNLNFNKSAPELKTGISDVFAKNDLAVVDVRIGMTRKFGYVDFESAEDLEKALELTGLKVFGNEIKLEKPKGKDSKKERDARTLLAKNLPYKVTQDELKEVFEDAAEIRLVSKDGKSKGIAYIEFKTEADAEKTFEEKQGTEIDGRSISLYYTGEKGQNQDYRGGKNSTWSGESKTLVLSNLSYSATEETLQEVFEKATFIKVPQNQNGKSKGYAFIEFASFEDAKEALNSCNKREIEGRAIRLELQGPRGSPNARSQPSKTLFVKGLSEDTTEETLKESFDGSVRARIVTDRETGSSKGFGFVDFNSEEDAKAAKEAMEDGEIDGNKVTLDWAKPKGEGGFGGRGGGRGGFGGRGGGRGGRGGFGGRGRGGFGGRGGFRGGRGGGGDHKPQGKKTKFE

| Molecule | growth modulation [1] | specificity of binding [2] | stable disease for the duration of the study [3] | stability in serum [4] | tolerability / toxicity [5] | metastasis, first RCC responder ([6]; 18 months after treatment) | disease status, first RCC responder ([6]; 26 months after one seven-day infusion at 10 mg/kg) | clinical benefit (CR+PR+SD) ([6]; RCC patients, RECIST) | response rate (CR+PR) ([6]; RCC patients, continuous i.v. infusion, up to 40 mg/kg/day for up to 7 days, RECIST) | complete response ([6]; RCC subjects, RECIST) | partial response ([6]; RCC subjects, RECIST) | stable disease for the duration of the study ([6]; RCC subjects, RECIST) | decrease in the sum of greatest linear dimensions of target lesions from baseline ([6]; second RCC responder, two seven-day infusions at 22 mg/kg) | anti-proliferative response in tumor cells [7] |
| --- | --- | --- | --- | --- | --- | --- | --- | --- | --- | --- | --- | --- | --- | --- |
| N.N.[Cl][Pt][Cl] [cis-platin, reference compound] | 29% | – | – | – | – | – | – | – | – | – | – | – | – | – |
| 5′-GGTGGTGGTGGTTGTGGTGG TGGTGG-3′ [SEQ ID NO:12] | – | specificity for nucleolin | 40% | extremely stable and resistant to degradation by serum enzymes | well tolerated with no serious toxicity of any type related to drug administration | single brain metastasis | no evidence of disease | 75% | 17% | 8.4% | 8.4% | 58% | about 70% | strong anti-proliferative response |
